Laboratory results published in patent US20160297833A1, “THIENOPYRIMIDINES AS MKNK1 AND MKNK2 INHIBITORS” (BAYER PHARMA AKTIENGESELLSCHAFT, priority 2013, published 2016).
Where two headings read alike, the source gives them in different places.

Target: T1, human full-length MKNK1 (Homo sapiens, UniProt Q9BUB5, T385D)
T1 construct: GST (N); purchased Carna Biosciences 02-145; host or cells: insect cells (baculovirus expression system)
Experiment: MKNK1 kinase high ATP assay (TR-FRET)
Assay type: biochemical
Procedure, shortened: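 Full-length human MKNK1 (T385D) preincubated 15 min at 22 °C with compound in HEPES pH 7.5/MgCl2/DTT buffer; reaction with 2 mM ATP (final) and 0.06 μM biotinylated peptide (final), 30 min at 22 °C.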

[1] = Table 1, MKNK1 kinase high ATP assay, 2 mM ATP, read-out: MKNK1 IC50

T1 sequence (Q9BUB5 1-424 isoform Q9BUB5-2 T344D): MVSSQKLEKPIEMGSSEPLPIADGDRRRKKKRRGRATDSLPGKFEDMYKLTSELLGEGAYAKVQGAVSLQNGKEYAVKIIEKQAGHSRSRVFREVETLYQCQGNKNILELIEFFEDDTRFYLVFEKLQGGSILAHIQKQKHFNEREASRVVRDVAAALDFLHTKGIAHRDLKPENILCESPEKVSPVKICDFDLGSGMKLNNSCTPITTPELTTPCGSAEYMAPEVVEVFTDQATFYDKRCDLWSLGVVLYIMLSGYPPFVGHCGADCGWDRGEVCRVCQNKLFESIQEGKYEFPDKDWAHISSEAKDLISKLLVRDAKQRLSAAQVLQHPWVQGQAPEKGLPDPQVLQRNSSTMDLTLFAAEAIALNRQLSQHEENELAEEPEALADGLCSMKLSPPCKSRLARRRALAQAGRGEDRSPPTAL

Compound	IC50 [1] [nM]	other results
CN(C)C1CCN(c2cc3[nH]ncc3cc2Nc2ncnc3sc4c(c23)CC[C@H](C(=O)N2CC3(COC3)C2)C4)CC1 [Example 166, [(7S)-4-({6-[4-(dimethylamino)piperidin-1-yl]-1H-indazol-5-yl}amino)-5,6,7,8-tetrahydro[1]benzothieno[2,3-d]pyrimidin-7-yl](2-oxa-6-azaspiro[3.3]hept-6-yl)methanone]	20.6	–
O=C([C@H]1CCc2c(sc3ncnc(Nc4ccc5[nH]ncc5c4)c23)C1)N1CCOCC1 [Example 9, [(7S)-4-(1H-Indazol-5-ylamino)-5,6,7,8-tetrahydro[1]benzothieno[2,3-d]pyrimidin-7-yl](morpholin-4-yl)methanone]	25.6	–
CCOc1cc2[nH]ncc2cc1Nc1ncnc2sc3c(c12)CC[C@@H](C(=O)N1CCC(=O)CC1)C3 [Example 69, 1-({(7R)-4-[(6-Ethoxy-1H-indazol-5-yl)amino]-5,6,7,8-tetrahydro[1]benzothieno[2,3-d]pyrimidin-7-yl}carbonyl)piperidin-4-one]	–	IC50: 2.5 nM
CC(C)N(C)C(=O)[C@H]1CCc2c(sc3ncnc(Nc4cc5cn[nH]c5cc4N4CCC(N(C)C)CC4)c23)C1 [Example 155, (7S)-4-({6-[4-(Dimethylamino)piperidin-1-yl]-1H-indazol-5-yl}amino)-N-methyl-N-(propan-2-yl)-5,6,7,8-tetrahydro[1]benzothieno[2,3-d]pyrimidine-7-carboxamide]	7.6	–
C[C@@H]1COCCN1C(=O)[C@H]1CCc2c(sc3ncnc(Nc4cc5cn[nH]c5cc4N(C)C)c23)C1 [Example 187, [(7S)-4-{[6-(Dimethylamino)-1H-indazol-5-yl]amino}-5,6,7,8-tetrahydro[1]benzothieno[2,3-d]pyrimidin-7-yl][(3R)-3-methylmorpholin-4-yl]methanone]	0.2	–
C[C@@H]1CN(C(=O)[C@H]2CCc3c(sc4ncnc(Nc5ccc6[nH]ncc6c5)c34)C2)C[C@H](C)O1 [Example 162, [(2R,6S)-2,6-dimethylmorpholin-4-yl][(7S)-4-(1H-indazol-5-ylamino)-5,6,7,8-tetrahydro[1]benzothieno[2,3-d]pyrimidin-7-yl]methanone]	11.6	–
COc1cc2[nH]ncc2cc1Nc1ncnc2sc3c(c12)CC[C@H](C(=O)N1CCSCC1)C3 [Example 207, {(7S)-4-[(6-methoxy-1H-indazol-5-yl)amino]-5,6,7,8-tetrahydro[1]benzothieno[2,3-d]pyrimidin-7-yl}(thiomorpholin-4-yl)methanone]	0.2	–
COc1cc2[nH]ncc2cc1Nc1ncnc2sc3c(c12)CC[C@H](C(=O)N1CCCC1)C3 [Example 23, {(7S)-4-[(6-Methoxy-1H-indazol-5-yl)amino]-5,6,7,8-tetrahydro[1]benzothieno[2,3-d]pyrimidin-7-yl}(pyrrolidin-1-yl)methanone]	0.5	–
CN(CC(C)(C)O)C(=O)[C@H]1CCc2c(sc3ncnc(Nc4ccc5[nH]ncc5c4)c23)C1 [Example 18, (7S)—N-(2-Hydroxy-2-methylpropyl)-4-(1H-indazol-5-ylamino)-N-methyl-5,6,7,8-tetrahydro[1]benzothieno[2,3-d]pyrimidine-7-carboxamide]	3.9	–
(7S)—N-Ethyl-4-(1H-indazol-5-ylamino)-N-methyl-5,6,7,8-tetrahydro[1]benzothieno[2,3-d]pyrimidine-7-carboxamide [Example 4]	–	IC50 (Table 3, example numbers of WO2013/174744(A1), not of this patent, pure enantiomer from chiral HPLC, absolute configuration at amide 'R or S', read-out: MKNK1 IC50): 11.7 nM; IC50 (Table 3, example numbers of WO2013/174744(A1), not of this patent, pure enantiomer from chiral HPLC, absolute configuration at amide 'S or R', read-out: MKNK1 IC50): 6.5 nM; Activity Ratio MKNK1 (Table 3, example numbers of WO2013/174744(A1), ratio of the IC50 values of the two enantiomers): 1.8
COc1cc2[nH]ncc2cc1Nc1ncnc2sc3c(c12)CC[C@H](C(=O)N1CCC(N(C)C)CC1)C3 [Example 46, [4-(Dimethylamino)piperidin-1-yl]{(7S)-4-[(6-methoxy-1H-indazol-5-yl)amino]-5,6,7,8-tetrahydro[1]benzothieno[2,3-d]pyrimidin-7-yl}methanone]	0.1	–
CN(C)C(=O)[C@H]1CCc2c(sc3ncnc(Nc4cc5cn[nH]c5cc4OCCN4CCOC4=O)c23)C1 [Example 194, (7S)—N,N-Dimethyl-4-({6-[2-(2-oxo-1,3-oxazolidin-3-yl)ethoxy]-1H-indazol-5-yl}amino)-5,6,7,8-tetrahydro[1]benzothieno[2,3-d]pyrimidine-7-carboxamide]	44.3	–
C[C@@H]1COCCN1C(=O)[C@H]1CCc2c(sc3ncnc(Nc4cc5cn[nH]c5cc4N4CCC(N(C)C)CC4)c23)C1 [Example 136, [(7S)-4-({6-[4-(Dimethylamino)piperidin-1-yl]-1H-indazol-5-yl}amino)-5,6,7,8-tetrahydro[1]benzothieno[2,3-d]pyrimidin-7-yl][(3R)-3-methylmorpholin-4-yl]methanone]	24	–
CCN(CCO)C(=O)[C@@H]1CCc2c(sc3ncnc(Nc4cc5cn[nH]c5cc4OC)c23)C1 [Example 41, (7R)—N-Ethyl-N-(2-hydroxyethyl)-4-[(6-methoxy-1H-indazol-5-yl)amino]-5,6,7,8-tetrahydro[1]benzothieno[2,3-d]pyrimidine-7-carboxamide]	10.5	–
CN(CCC(F)(F)F)C(=O)[C@H]1CCc2c(sc3ncnc(Nc4cc5cn[nH]c5cc4N(C)C)c23)C1 [Example 241, (7S)-4-{[6-(Dimethylamino)-1H-indazol-5-yl]amino}-N-methyl-N-(3,3,3-trifluoropropyl)-5,6,7,8-tetrahydro[1]benzothieno[2,3-d]pyrimidine-7-carboxamide]	0.2	–
CCN(CCO)C(=O)[C@H]1CCc2c(sc3ncnc(Nc4ccc5[nH]ncc5c4)c23)C1 [Example 19, (7S)—N-Ethyl-N-(2-hydroxyethyl)-4-(1H-indazol-5-ylamino)-5,6,7,8-tetrahydro[1]benzothieno[2,3-d]pyrimidine-7-carboxamide]	2.5	–
COc1cc2[nH]ncc2cc1Nc1ncnc2sc3c(c12)CC[C@H](C(=O)N(C)CCN(C)C)C3 [Example 51, (7S)—N-[2-(Dimethylamino)ethyl]-4-[(6-methoxy-1H-indazol-5-yl)amino]-N-methyl-5,6,7,8-tetrahydro[1]benzothieno[2,3-d]pyrimidine-7-carboxamide]	0.1	–
COc1cc2[nH]ncc2cc1Nc1ncnc2sc3c(c12)CC[C@H](C(=O)N(C)CCC(=O)N(C)C)C3 [Example 55, (7S)—N-[3-(Dimethylamino)-3-oxopropyl]-4-[(6-methoxy-1H-indazol-5-yl)amino]-N-methyl-5,6,7,8-tetrahydro[1]benzothieno[2,3-d]pyrimidine-7-carboxamide]	0.1	–
CCCN(C)C(=O)[C@H]1CCc2c(sc3ncnc(Nc4cc5cn[nH]c5cc4OCC)c23)C1 [Example 174, (7S)-4-[(6-Ethoxy-1H-indazol-5-yl)amino]-N-methyl-N-propyl-5,6,7,8-tetrahydro[1]benzothieno[2,3-d]pyrimidine-7-carboxamide]	0.1	–
COc1cc2[nH]ncc2cc1Nc1ncnc2sc3c(c12)CC[C@H](C(=O)N(C)C)C3 [Example 20, (7S)-4-[(6-Methoxy-1H-indazol-5-yl)amino]-N,N-dimethyl-5,6,7,8-tetrahydro[1]benzothieno[2,3-d]pyrimidine-7-carboxamide]	1	–
CC(C)Oc1cc2[nH]ncc2cc1Nc1ncnc2sc3c(c12)CC[C@H](C(=O)N1CC2(COC2)C1)C3 [Example 88, 2-Oxa-6-azaspiro[3.3]hept-6-yl[(7S)-4-{[6-(propan-2-yloxy)-1H-indazol-5-yl]amino}-5,6,7,8-tetrahydro[1]benzothieno[2,3-d]pyrimidin-7-yl]methanone]	0.4	Activity-Ratio MKNK1 (Table 2, ratio of the IC50-value of an R-enantiomer and its corresponding S-enantiomer): 15.0
COc1cc2[nH]ncc2cc1Nc1ncnc2sc3c(c12)CC[C@H](C(=O)N1CC(C#N)C1)C3 [Example 35, 1-({(7S)-4-[(6-Methoxy-1H-indazol-5-yl)amino]-5,6,7,8-tetrahydro[1]benzothieno[2,3-d]pyrimidin-7-yl}carbonyl)azetidine-3-carbonitrile]	0.7	–
CN(C)C(=O)[C@H]1CCc2c(sc3ncnc(Nc4cc5cn[nH]c5cc4OCCCN)c23)C1 [Example 111, (7S)-4-{[6-(3-Aminopropoxy)-1H-indazol-5-yl]amino}-N,N-dimethyl-5,6,7,8-tetrahydro[1]benzothieno[2,3-d]pyrimidine-7-carboxamide]	1.4	–
CN(C)C(=O)[C@H]1CCc2c(sc3ncnc(Nc4cc5cn[nH]c5cc4N(C)CC(C)(C)O)c23)C1 [Example 101, (7S)-4-({6-[(2-Hydroxy-2-methylpropyl)(methyl)amino]-1H-indazol-5-yl}amino)-N,N-dimethyl-5,6,7,8-tetrahydro[1]benzothieno[2,3-d]pyrimidine-7-carboxamide]	9.1	–
CN(C)c1cc2[nH]ncc2cc1Nc1ncnc2sc3c(c12)CC[C@H](C(=O)N1CCC1)C3 [Example 196, Azetidin-1-yl[(7S)-4-{[6-(dimethylamino)-1H-indazol-5-yl]amino}-5,6,7,8-tetrahydro[1]benzothieno[2,3-d]pyrimidin-7-yl]methanone]	0.1	–
CC(C)Oc1cc2[nH]ncc2cc1Nc1ncnc2sc3c(c12)CC[C@H](C(=O)N(C)CCC(F)(F)F)C3 [Example 125, (7S)—N-Methyl-4-{[6-(propan-2-yloxy)-1H-indazol-5-yl]amino}-N-(3,3,3-trifluoropropyl)-5,6,7,8-tetrahydro[1]benzothieno[2,3-d]pyrimidine-7-carboxamide]	0.4	–
CN(C)C(=O)[C@H]1CCc2c(sc3ncnc(Nc4cc5cn[nH]c5cc4N4CCC(N(C)C)CC4)c23)C1 [Example 104, (7S)-4-({6-[4-(Dimethylamino)piperidin-1-yl]-1H-indazol-5-yl}amino)-N,N-dimethyl-5,6,7,8-tetrahydro[1]benzothieno[2,3-d]pyrimidine-7-carboxamide]	29.5	–
